As a reminder, the Emax is the greatest response seen or fitted, relative to the assay's reference. Usually EC50 stands for the concentration giving half of the maximal effect.

One assay has as its target human mGluR5 (Homo sapiens, UniProt P41594). Description: Cell-based functional Ca2+ mobilization assay (FDSS), potentiation of glutamate EC20 response. The following applies: H10H cell-line. From the text:
Human mGluR5a cDNA in pCMV6-XL6 mammalian expression plasmid was purchased from OriGene Technologies, Inc. (catalogue number SC326357) and subcloned into pcDNA3.1(-). Human embryonic kidney (HEK)293A cells were then transfected with human mGluR5a pcDNA3.1(-) using LipofectAmine-2000 (Invitrogen) and monoclones were selected and tested for functional response using a Ca^2+ mobilization assay. Monoclones were named for the species (“H” for human) plus the location on the plate (e.g. “10H”). […] Cell-lines used were either the H10H or […] cell-lines expressing the human mGluR5 receptor. The following day, the growth medium was removed and the cells were washed with assay buffer containing 1× Hank's balanced salt solution (Invitrogen, Carlsbad, Calif.), 20 mM HEPES, 2.5 mM probenecid, pH 7.4 and left with 20 μL of this reagent. Following this step, the cells were loaded with calcium indicator dye, fluo-4 AM, to a final concentration of 2 μM and incubated for 40-45 min at 37° C. The dye solution was removed and replaced with assay buffer. Cell plates were held for 10-15 min at room temperature and were then loaded into the Functional Drug Screening System 6000 (FDSS 6000, Hamamatsu, Japan). […] Calcium fluorescence measures were recorded as fold over basal fluorescence; raw data was then normalized to the maximal response to glutamate. […] The concentration-response curves of compounds of the present invention, obtained in the presence of EC20 of mGluR5 receptor agonist glutamate to determine positive allosteric modulation, were generated using Microsoft Excel with IDBS XLfit add-ins. The raw data file containing all time points was used as the data source in the analysis template. This was saved by the FDSS as a tab-delimited text file. Data were normalized using a static ratio function (F/F0) for each measurement of the total 350 values per well divided by each well's initial value. […] This is sufficient time to capture the peak amplitude of the cellular Calcium response. […] Each of the three values collected at each concentration of test compound were weighted evenly. Individual values falling outside the 95% prediction limits of the curve fit were automatically excluded from the fit. […] These two methods are in good agreement for curves with a clear plateau at the high concentration range. […] For consistency purposes across the range of potencies observed, all EMax values reported in this application are calculated using the maximum average response at a single concentration. The % EMax value for each compound reported in this application is defined as the maximum % effect obtained in a concentration-response curve of that compound expressed as a percent of the response of a maximally effect concentration of glutamate. […] Table IV below lists specific compounds as well as experimentally determined mGluR5 activity determined in a cell-based. The mGluR5 activity was determined using the metabotropic glutamate receptor activity assays in human embryonic kidney cells as described herein, wherein the human embryonic kidney cells were transfected with human mGluR5. The data in Table III were obtained using the H10H cell-line which expresses recombinant human mGluR5. The compound number corresponds to the compound numbers used in Table I.
In general terms: Calcium flux is commonly read through the fluorescence of an indicator in the cells.

In assay [1] the test system is amphetamine-induced hyperlocomotion. Description: Reversal of amphetamine-induced hyperlocomotion in rat. Type of assay: in vivo. The following applies: male Sprague-Dawley rats; compound p.o.; amphetamine 1 mg/kg s.c. On the procedure: The study was carried out using male Sprague-Dawley rats weighing 225 g-275 g, between 2-3 months old (Harlan, Inc., Indianapolis, Ind.). They were kept in the animal care facility certified by the American Association for the Accreditation of Laboratory Animal Care (AALAC) under a 12-hour light/dark cycle (lights on: 6 a.m.; lights off: 6 p.m.) and had free access to food and water. The experimental protocols performed during the light cycle were approved by the Institutional Animals Care and Use Committee of Vanderbilt University and conformed to the guidelines established by the National Research Council Guide for the Care and Use of Laboratory Animals.
Locomotor activity was assessed as mean distance traveled (cm) in Smart Open Field locomotor activity test chambers (Hamilton-Kinder, San Diego, Calif.) with 16×16 photobeams with chambers measuring 43.2 cm (Length)×43.2 cm (Width)×30.5 cm (Height) (Med Associates, St. Albans, Vt.). […] At 60 min, all rats were injected subcutaneously with 1 mg/kg amphetamine or vehicle and then monitored for an additional 60 min. Animals are monitored for a total of 120 minutes.
Data are expressed as the mean (±SEM) distance traveled recorded in 5 min intervals over the test period. The data was analyzed using repeated measures analysis of variance (ANOVA) followed by post-hoc testing using Dunnett's test, when appropriate. […]

human mGluR5, sequence (P41594 21-1180 isoform P41594-2 limits assumed): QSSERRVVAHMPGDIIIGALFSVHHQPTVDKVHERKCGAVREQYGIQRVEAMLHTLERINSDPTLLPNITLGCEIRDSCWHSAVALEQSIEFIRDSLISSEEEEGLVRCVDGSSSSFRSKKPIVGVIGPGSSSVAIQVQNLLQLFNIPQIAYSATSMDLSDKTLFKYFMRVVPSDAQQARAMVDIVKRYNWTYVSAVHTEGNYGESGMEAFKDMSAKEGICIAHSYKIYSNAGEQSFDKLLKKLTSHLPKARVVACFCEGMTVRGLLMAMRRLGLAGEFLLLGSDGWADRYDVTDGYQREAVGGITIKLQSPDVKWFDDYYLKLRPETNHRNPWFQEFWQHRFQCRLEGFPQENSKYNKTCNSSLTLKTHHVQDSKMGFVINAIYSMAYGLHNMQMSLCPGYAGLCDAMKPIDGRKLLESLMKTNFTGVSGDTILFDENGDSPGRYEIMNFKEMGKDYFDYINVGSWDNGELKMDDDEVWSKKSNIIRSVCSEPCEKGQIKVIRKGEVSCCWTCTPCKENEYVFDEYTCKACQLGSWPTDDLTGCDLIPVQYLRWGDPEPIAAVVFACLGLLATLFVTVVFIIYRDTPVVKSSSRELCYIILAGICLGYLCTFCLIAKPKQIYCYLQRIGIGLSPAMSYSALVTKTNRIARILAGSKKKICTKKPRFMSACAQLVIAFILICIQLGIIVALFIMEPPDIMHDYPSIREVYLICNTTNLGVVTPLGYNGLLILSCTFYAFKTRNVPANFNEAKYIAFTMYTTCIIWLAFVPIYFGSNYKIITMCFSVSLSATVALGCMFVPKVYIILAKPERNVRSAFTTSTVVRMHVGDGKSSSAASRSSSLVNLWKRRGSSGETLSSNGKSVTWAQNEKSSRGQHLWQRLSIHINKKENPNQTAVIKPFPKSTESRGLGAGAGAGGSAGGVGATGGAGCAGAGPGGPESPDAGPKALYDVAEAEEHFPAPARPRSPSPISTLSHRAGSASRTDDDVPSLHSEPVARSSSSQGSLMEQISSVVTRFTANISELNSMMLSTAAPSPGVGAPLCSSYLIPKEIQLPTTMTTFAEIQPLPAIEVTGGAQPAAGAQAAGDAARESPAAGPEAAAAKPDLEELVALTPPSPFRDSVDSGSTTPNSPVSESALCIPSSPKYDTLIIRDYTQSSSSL

On to `O=C1c2cc(COc3ccccc3)nn2CCN1C[C@H]1CC1(F)F` [Compound 1, (R)-5-((2,2-difluorocyclopropyl)methyl)-2-(phenoxymethyl)-6,7-dihydropyrazolo[1,5-a]pyrazin-4(5H)-one], for which the maximal effect (Emax) at human mGluR5 (maximum % effect as percent of response to maximally effective glutamate, glutamate EC20 present, read-out: Emax (%)) came out at 55%. Moreover, the EC50 on human mGluR5 (potentiation in presence of glutamate EC20) is 0.234 µM. In assay [1], the “reversal of amphetamine-induced hyperlocomotion” value is “effective in reducing amphetamine-induced hyperlocomotion”.

These data come from patent US20130345204A1, “SUBSTITUTED BICYCLIC CYCLOALKYL PYRAZOLE LACTAM ANALOGS AS ALLOSTERIC MODULATORS OF MGLUR5 RECEPTORS” (Vanderbilt University, priority 2012, published 2013).
